Source: patent US8828987B2, “Pyridine amide derivatives as EP4 receptor antagonists” (Rottapharm Biotech S.R.L., priority 2010, dated 2014)
Like-named read-outs stand apart in the source and are kept apart here.

How the values were obtained:
[1] = molecular target: T1, human EP4 receptor (Homo sapiens, UniProt P35408); assay: cAMP assay (AlphaScreen) on human EP4 membrane of transfected cells, antagonism of PGE2; assay type: biochemical; details: HEK293 hEP4 cell membrane stimulated with PGE2 3 nM; read-out: functional IC50
T1 construct: expressed in transfected cells; membrane fraction used
T1 sequence (P35408 whole entry): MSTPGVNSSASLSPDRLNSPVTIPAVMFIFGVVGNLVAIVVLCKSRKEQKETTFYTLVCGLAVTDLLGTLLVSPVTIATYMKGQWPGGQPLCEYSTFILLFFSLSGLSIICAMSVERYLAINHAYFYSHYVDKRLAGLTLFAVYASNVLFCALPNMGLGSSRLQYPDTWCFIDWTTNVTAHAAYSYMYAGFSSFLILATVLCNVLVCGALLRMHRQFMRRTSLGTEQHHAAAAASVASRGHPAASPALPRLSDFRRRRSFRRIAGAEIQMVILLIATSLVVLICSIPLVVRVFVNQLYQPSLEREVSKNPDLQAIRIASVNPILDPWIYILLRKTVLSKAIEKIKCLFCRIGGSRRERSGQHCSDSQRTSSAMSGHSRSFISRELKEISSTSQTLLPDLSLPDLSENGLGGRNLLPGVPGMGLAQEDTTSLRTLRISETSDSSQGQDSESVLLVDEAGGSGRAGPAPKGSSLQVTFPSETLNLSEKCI
Procedure, shortened: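 Membranes of HEK293 cells stably expressing human EP4 (1 μg/well) in HBSS/IBMX 0.5 mM/GTP/GDP/ATP buffer, pH 7.4, preincubated 30 min at 22-23 °C with compound plus PGE2 3 nM. cAMP quantified by AlphaScreen competition with biotinylated cAMP after 1 h. IC50 from cAMP standard curve by linear regression.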

[2] = Pharmacokinetics in male Han Wistar rats, intravenous and oral; assay type: in vivo; details: rat; for AUC(0-inf) / AUC(0-t) / clearance / Vd / half-life / Cmax / Tmax / bioavailability: male, Han Wistar, plasma; for clearance: read-out: CLp* (converted); for Vd: read-out: Vss*; for half-life: read-out: t½* (converted); for bioavailability: po
Method: Determination of PK of the Invention Compounds
The pharmacokinetics of compounds E10, E16, E34, E38, E51, were studied in male Han Wistar rats. The rats were treated intravenously and orally (n=3 for each dose route) with a compounds formulated as solutions. The rats were fitted with a jugular cannula for serial sampling. A full profile was acquired for each rat. Plasma extracts were quantitatively analyzed using a specific and sensitive LC-MS/MS bioanalytical method. Inter-individual variations between the three rats in each group were limited (CV for pharmacokinetic parameters was below 50%).

[3] = molecular target: T1, human EP4 receptor; assay: [3H]-Prostaglandin E2 membrane binding assay (human EP4/HEK293 transfectant membranes); details: [3H]-PGE2 1 nM, hEP4/HEK293 membranes; Ki by Cheng-Prusoff; read-out: Binding pKi (converted)
Procedure, shortened: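 HEK293 membranes stably expressing human EP4 (10 µg protein) incubated with 1 nM [3H]-PGE2 in 10 mM MES-KOH pH 6, 10 mM MgCl2, 1 mM CaCl2, 90 min at room temperature; nonspecific binding with 1 µM PGE2. Filtration, scintillation counting; Ki via Cheng-Prusoff, reported as pKi; compounds tested 1 nM–1 µM.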

[4] = 2 mg/kg, PO, 2.0 mg/kg, read-out: F %
[5] = 1 mg/kg, PO, 1.0 mg/kg, read-out: F %

IC50 [1]	AUC(0-inf) ([2]; IV, 2.0 mg/kg)	AUC(0-t) ([2]; IV, 2.0 mg/kg)	clearance ([2]; IV, 2.0 mg/kg)	Vd ([2]; IV, 2.0 mg/kg)	half-life ([2]; IV, 2.0 mg/kg)	AUC(0-inf) ([2]; PO, 2.0 mg/kg)	AUC(0-t) ([2]; PO, 2.0 mg/kg)	Cmax ([2]; PO, 2.0 mg/kg)	Tmax ([2]; PO, 2.0 mg/kg)	half-life ([2]; PO, 2.0 mg/kg)	bioavailability [2, 4]	Tlast ([2]; IV, 2.0 mg/kg)	Tlast ([2]; PO, 2.0 mg/kg)	Ki [3]	AUC(0-inf) ([2]; IV, 1.0 mg/kg)	AUC(0-t) ([2]; IV, 1.0 mg/kg)	clearance ([2]; IV, 1.0 mg/kg)	Vd ([2]; IV, 1.0 mg/kg)	half-life ([2]; IV, 1.0 mg/kg)	Structure (SMILES)	other results
0.046 µM	3.15 µg·h/mL	3.09 µg·h/mL	2.68 mL/min	0.307 L	3.96 h	1.82 µg·h/mL	1.72 µg·h/mL	0.923 µg/mL	0.25 h	4.85 h	56%	24 h	24 h	0.0158 µM						O=C(O)c1ccc(C2(NC(=O)c3cc(Cl)cnc3N3CC(Oc4ccccc4)C3)CC2)cc1 [E 10, 4-(1-(5-chloro-2-(3-phenoxyazetidin-1-yl)nicotinamido)cyclopropyl)benzoic acid]	
0.0193 µM														0.0126 µM	0.832 µg·h/mL	0.816 µg·h/mL	5.68 mL/min	1.07 L	5.9 h	O=C(O)c1ccc(C2(NC(=O)c3cc(C(F)(F)F)cnc3N3CC(Oc4cccc(F)c4)C3)CC2)cc1 [E 38, 4-(1-(2-(3-(3-fluorophenoxy)azetidin-1-yl)-5-(trifluoromethyl)nicotinamido)cyclopropyl)benzoic acid]	AUC(0-inf) ([2]; PO, 1.0 mg/kg): 0.598 µg·h/mL; AUC(0-t) ([2]; PO, 1.0 mg/kg): 0.551 µg·h/mL; Cmax ([2]; PO, 1.0 mg/kg): 0.374 µg/mL; Tmax ([2]; PO, 1.0 mg/kg): 0.25 h; half-life ([2]; PO, 1.0 mg/kg): 2.59 h; bioavailability [2, 5]: 59%; Tlast ([2]; IV, 1.0 mg/kg): 24 h; Tlast ([2]; PO, 1.0 mg/kg): 6 h
0.028 µM														0.00631 µM	0.389 µg·h/mL	0.385 µg·h/mL	11.2 mL/min	0.447 L	1.12 h	Cc1cc(F)ccc1NC1CN(c2ncc(C(F)(F)F)cc2C(=O)NC2(c3ccc(C(=O)O)cc3)CC2)C1 [E 51, 4-(1-(2-(3-((4-fluoro-2-methylphenyl)amino)azetidin-1-yl)-5-(trifluoromethyl)nicotinamido)cyclopropyl)benzoic acid]	AUC(0-inf) ([2]; PO, 1.0 mg/kg): 0.231 µg·h/mL; AUC(0-t) ([2]; PO, 1.0 mg/kg): 0.225 µg·h/mL; Cmax ([2]; PO, 1.0 mg/kg): 0.151 µg/mL; Tmax ([2]; PO, 1.0 mg/kg): 0.25 h; half-life ([2]; PO, 1.0 mg/kg): 1.14 h; bioavailability [2, 5]: 58%; Tlast ([2]; IV, 1.0 mg/kg): 6 h; Tlast ([2]; PO, 1.0 mg/kg): 6 h
0.04 µM	3.33 µg·h/mL	3.29 µg·h/mL	2.67 mL/min	0.394 L	5.62 h	3 µg·h/mL	2.99 µg·h/mL	1.8 µg/mL	0.25 h	3.12 h	91%	24 h	24 h	0.00316 µM						O=C(O)c1ccc(C2(NC(=O)c3cc(Cl)cnc3N3CC(Oc4cccc(F)c4)C3)CC2)cc1 [E 16, 4-(1-(5-chloro-2-(3-(3-fluorophenoxy)azetidin-1-yl)nicotinamido)cyclopropyl)benzoic acid]	bioavailability ([2]; 2 mg/kg, after oral administration, read-out: absolute oral bioavailability F): 90%
